Reference: patent US20230165872A1, “COMBINATION OF BCMA-DIRECTED T CELL THERAPY AND AN IMMUNOMODULATORY COMPOUND” (Juno Therapeutics, Inc., priority 2020, published 2023)

System: RPMI-8226 target cells
Experiment: Rechallenge with RPMI-8226 after concurrent compound treatment during chronic stimulation (cytolysis, cytokines)
Type: cell-based, human
Procedure: Cryofrozen anti-BCMA CAR T cells, produced substantially as described in Example 1 and formulated at a 1:1 ratio of CD4+ and CD8^+ T cells, were thawed. To subject cells to chronic stimulation conditions, the anti-BCMA CAR+ T cells were stimulated with 50 μg BCMA conjugated beads (diameter about 4.5 μm from a 50 μg/ml BCMA-conjugated bead composition, generated as described in Example 2) at a ratio of T cells to beads of 1:1 in the presence or absence of Compound A (iberdomide, (S)-3-[4-(4-morpholin-4-ylmethyl-benzyloxy)-1-oxo-1,3-dihydro-isoindol-2-yl]-piperidine-2,6-dione) (1 nM or 10 nM), Compound B ((S)-4-(4-(4-(((2-(2,6-dioxopiperidin-3-yl)-1-oxoisoindolin-4-yl)oxy)methyl)benzyl)piperazin-1-yl)-3-fluorobenzonitrile) (0.1 nM or 1 nM), or DMSO vehicle control. The cells were then incubated at 37° C., 5% CO2 for 7 days.
CAR T cells that had been stimulated for 7 days with cultured with 50 μg BCMA-coated magnetic beads concurrently in the presence of the cell immunomodulatory compound were washed free of compound and cells were debeaded. The anti-BCMA CAR T cells that had been stimulated for 7 days with BCMA-conjugated beads in the presence of the compounds were co-cultured with RPMI-8226 target cells (labeled with NucLightRed as described in Example 2) at a 1:1 (effector:target) ratio. Killing activity was monitored over 200 hours by measuring NucLightRed (NLR)-positive target cells. The total cell number of NLR-expressing RPMI targets cells was determined by normalizing cell number over time to the number of cells at the initiation of the co-culture (t=0) for each respective condition.
For cytokine measurements, cell-free supernatants were collected from the cytolytic assay described above 24 hours after plating. Cytokine levels of IFNg, IL-2, and TNFalpha (TNFα) was measured in the supernatant.
Cryofrozen anti-BCMA CAR T cells, produced substantially as described in Example 1 and formulated at a 1:1 ratio of CD4+ and CD8+ T cells, were thawed. […] The cells were then incubated at 37° C., 5% CO2 for 7 days.
Cytolytic activity was assessed using OPM-2 and RPMI-8226 BCMA expressing target cells transduced with NucLight Red, a red fluorescent protein detectable by microscopy, to allow for measurement of target cell death. Anti-BCMA CAR T cells that had been stimulated for 7 days with BCMA-conjugated beads in the presence of the compounds were co-cultured with RPMI-8226 target cells at a 0.3:1 (effector:target) or 1:1 ratio. Cultures were incubated at 37° C., 5% CO2, and images were taken every 2 hours over 5-7 days with an Essen IncuCyte Zoom live-cell analysis system to track NucLightRed-positive target cells.
For cytokine measurements, cell-free supernatants were collected from the cytolytic assay described above 24 hours after plating. Cytokine levels were measured using IFNg, IL-2, and TNFalpha Meso Scale Discovery cytokine kit (Mesoscale) according to manufacturer instructions. The data was analyzed using GraphPad Prism to calculate absolute changes in cytokine relative to the DMSO vehicle control.

O=C1CC[C@H](N2Cc3c(OCc4ccc(CN5CCOCC5)cc4)cccc3C2=O)C(=O)N1 [Compound A, (S)-3-[4-(4-morpholin-4-ylmethyl-benzyloxy)-1-oxo-1,3-dihydro-isoindol-2-yl]-piperidine-2,6-dione]
cytolytic activity after long-term stimulation in the presence of compound (Example 7: E:T 0.3:1, lenalidomide 1000 nM, Compound A 1 or 10 nM, FIG. 9A): increased cytolytic activity
production of IFN-gamma (Example 7: supernatant at 24 hours, relative to DMSO, FIG. 9B): increased production
production of IL-2 (Example 7: supernatant at 24 hours, relative to DMSO, FIG. 9C): increased production
production of TNF-alpha (Example 7: supernatant at 24 hours, relative to DMSO, FIG. 9D): increased production
